Data from paper PMC6943751 (The Journal of infectious diseases, 2014).

Key:
[1] = molecular target: Neuraminidase (NA) of A/Taiwan/1/2013(H7N9) NA-WT (Influenza A virus, UniProt A0A024E3Q2); format: biochemical; settings: read-out: IC50, nM ± SD
[2] = molecular target: Neuraminidase (NA) of A/Washington/01/2007, NA-WT (Influenza A virus, UniProt A7UPN3); format: biochemical; settings: read-out: IC50, nM ± SD

CCC(CC)[C@H](NC(C)=O)[C@@H]1[C@H](O)[C@@H](C(=O)O)C[C@H]1N=C(N)N [Peramivir, peramivir]
IC50 [1]: 0.08 ± 0.02 nM | IC50 [2]: 0.23 ± 0.03 nM
